Experiments:
[1] = target: T1, CAMK4 (Homo sapiens, UniProt Q16566); set-up: method as in earlier work; details: Table S1; cited from earlier work
T1 construct: purchased DiscoveRx KINOMEscan (Ambit Biosciences)
T1 sequence (Q16566 1-473): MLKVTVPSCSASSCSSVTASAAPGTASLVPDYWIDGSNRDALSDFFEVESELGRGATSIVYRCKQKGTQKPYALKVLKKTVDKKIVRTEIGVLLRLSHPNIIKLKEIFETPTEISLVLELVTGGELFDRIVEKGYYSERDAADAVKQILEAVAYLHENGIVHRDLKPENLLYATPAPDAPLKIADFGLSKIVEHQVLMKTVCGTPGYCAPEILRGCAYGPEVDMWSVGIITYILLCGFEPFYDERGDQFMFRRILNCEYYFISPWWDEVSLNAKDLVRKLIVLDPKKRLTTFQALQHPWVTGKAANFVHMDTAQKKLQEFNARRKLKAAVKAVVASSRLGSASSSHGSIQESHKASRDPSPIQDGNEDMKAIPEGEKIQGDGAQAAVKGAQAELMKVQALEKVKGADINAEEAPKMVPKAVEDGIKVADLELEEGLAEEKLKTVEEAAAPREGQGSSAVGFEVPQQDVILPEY

[2] = target: T2, MEK5 (Homo sapiens, UniProt Q13163); test: KINOMEscan panel screen; type: binding; details: read-out: Percent Control(%)
T2 construct: purchased DiscoveRx KINOMEscan (Ambit Biosciences)

[3] = system: H1975; test: MTT cell viability assay; details: Homo sapiens, NCI-H1975, 72 h
[4] = target: T3, STK39 (Homo sapiens, UniProt Q9UEW8); test: KINOMEscan panel screen; type: binding; details: read-out: Percent Control(%)
T3 construct: purchased DiscoveRx KINOMEscan (Ambit Biosciences)

[5] = target: T4, RIPK5 (Homo sapiens, UniProt Q6XUX3); test: KINOMEscan panel screen; type: binding; details: read-out: Percent Control(%)
T4 construct: purchased DiscoveRx KINOMEscan (Ambit Biosciences)

[6] = target: T5, FLT3(R834Q) (Homo sapiens, UniProt P36888, R834Q); test: KINOMEscan panel screen; type: binding; details: read-out: Percent Control(%)
T5 construct: purchased DiscoveRx KINOMEscan (Ambit Biosciences)

[7] = target: T6, MAST1 (Homo sapiens, UniProt Q9Y2H9); test: KINOMEscan kinase binding assay (Kd)
T6 construct: purchased DiscoveRx KINOMEscan (Ambit Biosciences)

[8] = target: T7, PLK2 (Homo sapiens, UniProt Q9NYY3); test: KINOMEscan panel screen; type: binding; details: read-out: Percent Control(%)
T7 construct: purchased DiscoveRx KINOMEscan (Ambit Biosciences)

[9] = target: T8, PAK2 (Homo sapiens, UniProt Q13177); test: KINOMEscan panel screen; type: binding; details: read-out: Percent Control(%)
T8 construct: purchased DiscoveRx KINOMEscan (Ambit Biosciences)

[10] = target: T9, MKNK1 (Homo sapiens, UniProt Q9BUB5); test: KINOMEscan panel screen; type: binding; details: read-out: Percent Control(%)
T9 construct: purchased DiscoveRx KINOMEscan (Ambit Biosciences)

[11] = target: T10, GSK3A (Homo sapiens, UniProt P49840); test: KINOMEscan panel screen; type: binding; details: read-out: Percent Control(%)
T10 construct: purchased DiscoveRx KINOMEscan (Ambit Biosciences)

[12] = target: T11, NEK2 (Homo sapiens, UniProt P51955); test: KINOMEscan panel screen; type: binding; details: read-out: Percent Control(%)
T11 construct: purchased DiscoveRx KINOMEscan (Ambit Biosciences)

[13] = target: T12, KIT-autoinhibited (Homo sapiens, UniProt P10721); test: KINOMEscan panel screen; type: binding; details: read-out: Percent Control(%)
T12 construct: purchased DiscoveRx KINOMEscan (Ambit Biosciences)

[14] = target: T13, TYRO3 (Homo sapiens, UniProt Q06418); test: KINOMEscan panel screen; type: binding; details: read-out: Percent Control(%)
T13 construct: purchased DiscoveRx KINOMEscan (Ambit Biosciences)

[15] = target: T14, STK35 (Homo sapiens, UniProt Q8TDR2); test: KINOMEscan panel screen; type: binding; details: read-out: Percent Control(%)
T14 construct: purchased DiscoveRx KINOMEscan (Ambit Biosciences)

[16] = target: T15, RSK2(Kin.Dom.2-C-terminal) (Homo sapiens, UniProt P51812); test: KINOMEscan panel screen; type: binding; details: read-out: Percent Control(%)
T15 construct: RSK2(Kin.Dom.2-C-terminal); purchased DiscoveRx KINOMEscan (Ambit Biosciences)

[17] = target: T16, MAP4K5 (Homo sapiens, UniProt Q9Y4K4); test: KINOMEscan panel screen; type: binding; details: read-out: Percent Control(%)
T16 construct: purchased DiscoveRx KINOMEscan (Ambit Biosciences)

[18] = target: T17, OSR1 (Homo sapiens, UniProt O95747); test: KINOMEscan panel screen; type: binding; details: read-out: Percent Control(%)
T17 construct: purchased DiscoveRx KINOMEscan (Ambit Biosciences)

[19] = target: T18, MEK6 (Homo sapiens, UniProt P52564); test: KINOMEscan panel screen; type: binding; details: read-out: Percent Control(%)
T18 construct: purchased DiscoveRx KINOMEscan (Ambit Biosciences)

[20] = target: T19, ACVRL1 (Homo sapiens, UniProt P37023); test: KINOMEscan panel screen; type: binding; details: read-out: Percent Control(%)
T19 construct: purchased DiscoveRx KINOMEscan (Ambit Biosciences)

[21] = target: T20, STK16 (Homo sapiens, UniProt O75716); test: KINOMEscan panel screen; type: binding; details: read-out: Percent Control(%)
T20 construct: purchased DiscoveRx KINOMEscan (Ambit Biosciences)

[22] = target: T21, PFCDPK1(P.falciparum) (Plasmodium falciparum, UniProt P62344); test: KINOMEscan panel screen; type: binding; details: read-out: Percent Control(%)
T21 construct: purchased DiscoveRx KINOMEscan (Ambit Biosciences)

[23] = target: T22, BRSK1 (Homo sapiens, UniProt Q8TDC3); test: KINOMEscan panel screen; type: binding; details: read-out: Percent Control(%)
T22 construct: purchased DiscoveRx KINOMEscan (Ambit Biosciences)

[24] = target: T23, TIE1 (Homo sapiens, UniProt P35590); test: KINOMEscan panel screen; type: binding; details: read-out: Percent Control(%)
T23 construct: purchased DiscoveRx KINOMEscan (Ambit Biosciences)

[25] = target: T24, GAK (Homo sapiens, UniProt O14976); test: KINOMEscan panel screen; type: binding; details: read-out: Percent Control(%)
T24 construct: purchased DiscoveRx KINOMEscan (Ambit Biosciences)

[26] = target: T25, PIP5K2C (Homo sapiens, UniProt Q8TBX8); test: KINOMEscan panel screen; type: binding; details: read-out: Percent Control(%)
T25 construct: purchased DiscoveRx KINOMEscan (Ambit Biosciences)

[27] = target: LOK (Homo sapiens, UniProt O94804); test: KINOMEscan kinase binding assay (Kd)

T23 sequence (P35590 22-1138): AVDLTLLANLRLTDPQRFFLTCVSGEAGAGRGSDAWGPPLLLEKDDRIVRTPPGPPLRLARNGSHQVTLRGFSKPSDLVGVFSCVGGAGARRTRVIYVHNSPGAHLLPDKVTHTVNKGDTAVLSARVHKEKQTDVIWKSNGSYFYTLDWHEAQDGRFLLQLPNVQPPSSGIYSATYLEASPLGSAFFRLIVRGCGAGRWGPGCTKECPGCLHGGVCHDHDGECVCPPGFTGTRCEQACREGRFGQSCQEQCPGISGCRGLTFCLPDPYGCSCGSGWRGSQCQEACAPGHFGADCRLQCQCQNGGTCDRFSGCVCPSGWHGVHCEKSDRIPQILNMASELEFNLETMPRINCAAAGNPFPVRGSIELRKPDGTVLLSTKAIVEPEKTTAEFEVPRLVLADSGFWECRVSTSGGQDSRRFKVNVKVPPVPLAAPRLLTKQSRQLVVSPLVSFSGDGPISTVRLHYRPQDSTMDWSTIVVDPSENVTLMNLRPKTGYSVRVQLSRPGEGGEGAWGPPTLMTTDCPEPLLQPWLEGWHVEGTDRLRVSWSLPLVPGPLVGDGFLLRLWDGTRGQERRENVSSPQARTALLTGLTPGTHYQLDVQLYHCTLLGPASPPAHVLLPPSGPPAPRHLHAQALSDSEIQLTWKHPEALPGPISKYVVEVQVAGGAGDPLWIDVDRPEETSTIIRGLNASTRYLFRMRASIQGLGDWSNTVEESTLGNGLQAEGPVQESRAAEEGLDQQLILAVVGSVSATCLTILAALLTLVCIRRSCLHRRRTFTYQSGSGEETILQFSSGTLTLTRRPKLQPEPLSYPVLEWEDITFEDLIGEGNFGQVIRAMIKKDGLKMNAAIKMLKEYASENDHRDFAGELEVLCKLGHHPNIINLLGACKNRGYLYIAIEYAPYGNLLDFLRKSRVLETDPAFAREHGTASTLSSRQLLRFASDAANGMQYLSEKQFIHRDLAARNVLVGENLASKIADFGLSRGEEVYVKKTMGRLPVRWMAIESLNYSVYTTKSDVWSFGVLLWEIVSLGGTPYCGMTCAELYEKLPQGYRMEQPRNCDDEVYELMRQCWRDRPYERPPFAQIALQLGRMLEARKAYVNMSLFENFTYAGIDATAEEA
T11 sequence (P51955 whole entry): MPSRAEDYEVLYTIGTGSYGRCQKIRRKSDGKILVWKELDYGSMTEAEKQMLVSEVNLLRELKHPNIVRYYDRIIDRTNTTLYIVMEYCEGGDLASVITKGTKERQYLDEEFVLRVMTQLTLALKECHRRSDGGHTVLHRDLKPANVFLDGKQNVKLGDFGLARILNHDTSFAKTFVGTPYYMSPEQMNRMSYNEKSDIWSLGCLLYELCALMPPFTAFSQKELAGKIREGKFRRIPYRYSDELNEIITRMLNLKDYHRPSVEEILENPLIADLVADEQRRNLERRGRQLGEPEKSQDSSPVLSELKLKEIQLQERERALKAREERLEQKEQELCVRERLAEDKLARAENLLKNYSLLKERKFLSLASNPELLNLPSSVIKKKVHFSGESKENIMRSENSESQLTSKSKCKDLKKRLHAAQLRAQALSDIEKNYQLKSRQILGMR
T13 sequence (Q06418 41-890): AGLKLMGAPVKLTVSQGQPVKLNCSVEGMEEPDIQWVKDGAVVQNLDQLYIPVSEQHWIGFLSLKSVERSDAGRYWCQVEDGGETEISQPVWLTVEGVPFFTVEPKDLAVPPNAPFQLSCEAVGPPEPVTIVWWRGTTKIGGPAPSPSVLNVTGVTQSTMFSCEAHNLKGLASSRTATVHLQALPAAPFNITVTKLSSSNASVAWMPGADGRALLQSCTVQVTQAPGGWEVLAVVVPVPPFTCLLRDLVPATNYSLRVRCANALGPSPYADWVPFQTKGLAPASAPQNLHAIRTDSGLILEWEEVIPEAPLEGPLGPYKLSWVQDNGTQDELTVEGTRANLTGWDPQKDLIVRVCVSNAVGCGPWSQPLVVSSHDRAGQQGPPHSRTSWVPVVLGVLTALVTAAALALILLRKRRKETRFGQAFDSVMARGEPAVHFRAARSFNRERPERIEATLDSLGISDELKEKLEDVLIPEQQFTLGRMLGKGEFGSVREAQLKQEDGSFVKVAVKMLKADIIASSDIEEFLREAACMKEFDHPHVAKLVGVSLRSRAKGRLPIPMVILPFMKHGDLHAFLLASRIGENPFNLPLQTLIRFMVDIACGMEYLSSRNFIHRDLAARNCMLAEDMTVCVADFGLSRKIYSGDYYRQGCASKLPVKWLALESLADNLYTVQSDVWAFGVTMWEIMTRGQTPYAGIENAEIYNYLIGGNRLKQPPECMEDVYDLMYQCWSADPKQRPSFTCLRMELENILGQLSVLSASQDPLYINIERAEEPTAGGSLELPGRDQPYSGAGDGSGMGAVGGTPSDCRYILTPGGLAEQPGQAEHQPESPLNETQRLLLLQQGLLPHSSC
T20 sequence (O75716 whole entry): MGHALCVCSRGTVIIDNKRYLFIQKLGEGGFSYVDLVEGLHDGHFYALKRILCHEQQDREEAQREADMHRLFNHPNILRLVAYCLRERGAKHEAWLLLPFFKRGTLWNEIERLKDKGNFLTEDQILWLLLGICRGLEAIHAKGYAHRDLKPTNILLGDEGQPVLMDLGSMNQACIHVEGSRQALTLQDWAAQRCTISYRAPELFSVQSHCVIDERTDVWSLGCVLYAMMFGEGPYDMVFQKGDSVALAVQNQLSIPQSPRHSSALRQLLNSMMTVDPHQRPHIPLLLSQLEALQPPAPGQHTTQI
T16 sequence (Q9Y4K4 whole entry): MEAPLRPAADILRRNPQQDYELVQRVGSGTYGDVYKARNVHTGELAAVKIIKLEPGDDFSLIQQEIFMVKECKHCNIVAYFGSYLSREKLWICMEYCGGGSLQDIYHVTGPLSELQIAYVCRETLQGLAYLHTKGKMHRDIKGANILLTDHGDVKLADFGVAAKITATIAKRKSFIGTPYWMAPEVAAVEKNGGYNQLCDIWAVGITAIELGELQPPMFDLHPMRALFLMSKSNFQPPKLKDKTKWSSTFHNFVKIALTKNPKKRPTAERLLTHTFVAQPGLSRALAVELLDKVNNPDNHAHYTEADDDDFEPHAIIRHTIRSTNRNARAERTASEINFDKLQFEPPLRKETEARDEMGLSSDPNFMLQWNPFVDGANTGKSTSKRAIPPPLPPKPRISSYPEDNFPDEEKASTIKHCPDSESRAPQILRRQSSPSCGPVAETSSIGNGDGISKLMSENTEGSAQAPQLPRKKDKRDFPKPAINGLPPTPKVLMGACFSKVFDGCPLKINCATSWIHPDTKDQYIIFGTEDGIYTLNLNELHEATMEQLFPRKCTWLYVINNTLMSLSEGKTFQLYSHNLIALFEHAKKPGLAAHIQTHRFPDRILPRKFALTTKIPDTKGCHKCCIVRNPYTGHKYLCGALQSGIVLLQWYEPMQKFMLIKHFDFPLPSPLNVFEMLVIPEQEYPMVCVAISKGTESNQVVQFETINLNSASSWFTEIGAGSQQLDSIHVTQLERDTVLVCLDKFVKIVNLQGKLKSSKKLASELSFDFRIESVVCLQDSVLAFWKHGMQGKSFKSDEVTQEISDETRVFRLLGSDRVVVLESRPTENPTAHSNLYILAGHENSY
T15 sequence (P51812 422-679 limits assumed): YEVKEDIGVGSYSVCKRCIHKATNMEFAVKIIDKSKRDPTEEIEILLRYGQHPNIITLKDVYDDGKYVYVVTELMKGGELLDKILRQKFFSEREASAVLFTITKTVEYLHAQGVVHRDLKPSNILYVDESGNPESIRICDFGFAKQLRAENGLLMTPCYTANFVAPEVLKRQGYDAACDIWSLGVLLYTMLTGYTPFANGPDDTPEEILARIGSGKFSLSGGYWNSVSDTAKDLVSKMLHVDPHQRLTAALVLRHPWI
T22 sequence (Q8TDC3 whole entry): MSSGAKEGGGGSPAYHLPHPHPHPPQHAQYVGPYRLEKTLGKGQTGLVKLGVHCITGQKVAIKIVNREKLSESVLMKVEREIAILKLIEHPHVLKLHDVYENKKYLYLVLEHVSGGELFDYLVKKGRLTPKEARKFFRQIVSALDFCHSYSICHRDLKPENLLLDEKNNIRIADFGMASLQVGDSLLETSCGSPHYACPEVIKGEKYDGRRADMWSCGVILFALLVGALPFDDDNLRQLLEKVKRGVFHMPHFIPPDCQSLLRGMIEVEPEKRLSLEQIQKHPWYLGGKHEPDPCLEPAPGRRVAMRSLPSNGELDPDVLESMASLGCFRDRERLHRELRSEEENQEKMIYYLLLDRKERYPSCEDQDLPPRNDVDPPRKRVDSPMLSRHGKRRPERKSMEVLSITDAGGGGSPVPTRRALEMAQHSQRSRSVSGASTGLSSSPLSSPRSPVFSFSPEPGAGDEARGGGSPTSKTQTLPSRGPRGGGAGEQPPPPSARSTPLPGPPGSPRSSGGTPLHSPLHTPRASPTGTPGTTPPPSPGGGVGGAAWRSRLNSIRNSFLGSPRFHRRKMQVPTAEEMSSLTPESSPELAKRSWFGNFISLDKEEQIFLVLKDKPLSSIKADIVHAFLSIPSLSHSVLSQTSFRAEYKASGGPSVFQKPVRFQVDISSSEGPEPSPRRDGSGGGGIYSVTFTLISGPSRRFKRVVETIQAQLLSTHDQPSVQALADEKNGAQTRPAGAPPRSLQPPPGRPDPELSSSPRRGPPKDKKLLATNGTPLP
T2 sequence (Q13163 whole entry): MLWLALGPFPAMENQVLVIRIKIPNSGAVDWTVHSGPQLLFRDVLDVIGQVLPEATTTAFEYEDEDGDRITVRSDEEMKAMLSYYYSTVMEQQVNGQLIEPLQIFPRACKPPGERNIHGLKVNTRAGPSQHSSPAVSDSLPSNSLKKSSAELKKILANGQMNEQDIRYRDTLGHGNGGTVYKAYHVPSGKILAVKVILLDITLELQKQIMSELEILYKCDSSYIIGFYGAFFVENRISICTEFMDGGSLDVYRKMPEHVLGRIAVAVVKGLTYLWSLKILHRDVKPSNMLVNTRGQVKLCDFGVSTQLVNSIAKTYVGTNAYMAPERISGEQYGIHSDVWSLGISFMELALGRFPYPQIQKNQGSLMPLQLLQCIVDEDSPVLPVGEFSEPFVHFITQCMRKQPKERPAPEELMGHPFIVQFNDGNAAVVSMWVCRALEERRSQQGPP

O=C(Nc1ccc(Oc2ncnc3[nH]ncc23)cc1)Nc1ccc(Cl)c(C(F)(F)F)c1 [Compound 1, 1-(4-(1H-pyrazolo[3,4-d]pyrimidin-4-yloxy)phenyl)-3-(4-chloro-3-(trifluoromethyl)phenyl)urea]
IC50 [1]: > 10 µM

CC(C)(C)c1cc(NC(=O)Nc2ccc(Oc3ncnc4[nH]ncc34)c(F)c2)no1 [SKLB-677, 1-(4-(1H-pyrazolo[3,4-d]pyrimidin-4-yloxy)-3-fluorophenyl)-3-(5-tert-butylisoxazol-3-yl)urea]
remaining binding at 10 µM [2]: 13%
IC50 [3]: > 10 µM
remaining binding at 10 µM [4]: 100%
remaining binding at 10 µM [5]: 98%
remaining binding at 10 µM [6]: 2.8%
Kd [7]: > 10 µM
remaining binding at 10 µM [8]: 100%
remaining binding at 10 µM [9]: 79%
remaining binding at 10 µM [10]: 0.1%
remaining binding at 10 µM [11]: 30%
remaining binding at 10 µM [12]: 100%
remaining binding at 10 µM [13]: 1.1%
remaining binding at 10 µM [14]: 0.35%
remaining binding at 10 µM [15]: 0.95%
remaining binding at 10 µM [16]: 100%
remaining binding at 10 µM [17]: 2%
remaining binding at 10 µM [18]: 36%
remaining binding at 10 µM [19]: 62%
remaining binding at 10 µM [20]: 91%
remaining binding at 10 µM [21]: 36%
remaining binding at 10 µM [22]: 26%
remaining binding at 10 µM [23]: 85%
remaining binding at 10 µM [24]: 8.7%
remaining binding at 10 µM [25]: 100%
remaining binding at 10 µM [26]: 100%
Kd [27]: 5.1 nM

Reference: paper PMC4620497 (Scientific Reports, 2015)
